Assay results from ChEMBL document CHEMBL1201862, “PubChem BioAssay data set” (2004).
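Briefly, cells in 96-well plates were exposed to five compound concentrations for 48 h, and endpoints were estimated by linear interpolation. At the GI50, growth is halved.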 Calls of active or inactive are those of the source. Cut-off read from the data, not from the text of the source: active = GI50 up to about 1.1 µM and inactive = higher.

Experiments:
Test in all cases: NCI tumour cell line growth inhibition, 48 h
[1] = test system: IGROV-1
[2] = test system: RPMI-8226
[3] = test system: NCI-H460
[4] = test system: SF-539
[5] = test system: HOP-62
[6] = test system: TK-10
[7] = test system: SR
[8] = test system: MDA-N
[9] = test system: COLO 205
[10] = test system: KM12
[11] = test system: BT-549
[12] = test system: U-251
[13] = test system: UACC-62
[14] = test system: SK-MEL-2
[15] = test system: CCRF-CEM
[16] = test system: SF-295
[17] = test system: SW-620
[18] = test system: MDA-MB-435
[19] = test system: NCI-H522
[20] = test system: HT-29

Question: COc1cc2c(cc1O)[C@]1(Cc3ccc4c(c3C1=O)OCO4)N(C)CC2 was tested. Which GI50 [1] did it give?
Answer: > 100 µM (inactive)

Question: What about the GI50 [2] of the same compound?
Answer: > 100 µM (inactive)

Question: And the GI50 [3]?
Answer: > 100 µM (inactive)

Question: And the GI50 [4]?
Answer: > 100 µM (inactive)

Question: And the GI50 [5]?
Answer: > 100 µM (inactive)

Question: And the GI50 [6]?
Answer: > 100 µM (inactive)

Question: What about the GI50 [7] of the same compound?
Answer: > 100 µM (inactive)

Question: And the GI50 [8]?
Answer: > 100 µM (inactive)

Question: And the GI50 [9]?
Answer: > 100 µM (inactive)

Question: What about the GI50 [10] of the same compound?
Answer: > 100 µM (inactive)

Question: And the GI50 [11]?
Answer: > 100 µM (inactive)

Question: And the GI50 [12]?
Answer: > 100 µM (inactive)

Question: What about the GI50 [13] of the same compound?
Answer: > 100 µM (inactive)

Question: What about the GI50 [14] of the same compound?
Answer: > 100 µM (inactive)

Question: And the GI50 [15]?
Answer: > 100 µM (inactive)

Question: And the GI50 [16]?
Answer: > 100 µM (inactive)

Question: And the GI50 [17]?
Answer: > 100 µM (inactive)

Question: What about the GI50 [18] of the same compound?
Answer: > 100 µM (inactive)

Question: And the GI50 [19]?
Answer: > 100 µM (inactive)

Question: What about the GI50 [20] of the same compound?
Answer: > 100 µM (inactive)

Question: Which GI50 [1] does the source give for CCSc1nc(COC(=O)NC)c(COC(=O)NC)n1C here?
Answer: > 79.8 µM (inactive)

Question: And the GI50 [2]?
Answer: > 97.9 µM (inactive)

Question: What about the GI50 [3] of the same compound?
Answer: 73.1 µM (inactive)

Question: And the GI50 [4]?
Answer: 98.9 µM (inactive)

Question: What about the GI50 [5] of the same compound?
Answer: 99.3 µM (inactive)

Question: What about the GI50 [6] of the same compound?
Answer: > 100 µM (inactive)

Question: And the GI50 [7]?
Answer: 51.3 µM (inactive)

Question: What about the GI50 [8] of the same compound?
Answer: > 100 µM (inactive)

Question: What about the GI50 [9] of the same compound?
Answer: > 74.3 µM (inactive)

Question: What about the GI50 [10] of the same compound?
Answer: > 100 µM (inactive)

Question: And the GI50 [11]?
Answer: > 100 µM (inactive)

Question: What about the GI50 [12] of the same compound?
Answer: > 84.9 µM (inactive)

Question: What about the GI50 [13] of the same compound?
Answer: 34.1 µM (inactive)

Question: What about the GI50 [14] of the same compound?
Answer: > 89.7 µM (inactive)

Question: And the GI50 [15]?
Answer: 54 µM (inactive)

Question: What about the GI50 [16] of the same compound?
Answer: > 100 µM (inactive)

Question: What about the GI50 [17] of the same compound?
Answer: > 100 µM (inactive)

Question: And the GI50 [18]?
Answer: > 100 µM (inactive)

Question: And the GI50 [19]?
Answer: 40.6 µM (inactive)

Question: What about the GI50 [20] of the same compound?
Answer: > 100 µM (inactive)

Question: For COc1cccc(NC(=O)CC(=O)Nc2cccc(OC)c2)c1, which GI50 [1] is on record?
Answer: > 100 µM (inactive)

Question: What about the GI50 [2] of the same compound?
Answer: > 100 µM (inactive)

Question: What about the GI50 [3] of the same compound?
Answer: > 100 µM (inactive)

Question: And the GI50 [4]?
Answer: > 100 µM (inactive)

Question: And the GI50 [5]?
Answer: > 100 µM (inactive)

Question: What about the GI50 [6] of the same compound?
Answer: > 100 µM (inactive)

Question: And the GI50 [7]?
Answer: > 100 µM (inactive)

Question: And the GI50 [8]?
Answer: > 100 µM (inactive)

Question: And the GI50 [9]?
Answer: > 100 µM (inactive)

Question: And the GI50 [10]?
Answer: > 100 µM (inactive)

Question: And the GI50 [11]?
Answer: > 100 µM (inactive)

Question: And the GI50 [12]?
Answer: > 100 µM (inactive)

Question: And the GI50 [13]?
Answer: > 100 µM (inactive)

Question: What about the GI50 [14] of the same compound?
Answer: > 100 µM (inactive)

Question: What about the GI50 [15] of the same compound?
Answer: > 100 µM (inactive)

Question: What about the GI50 [16] of the same compound?
Answer: > 100 µM (inactive)

Question: And the GI50 [17]?
Answer: > 100 µM (inactive)

Question: And the GI50 [18]?
Answer: > 100 µM (inactive)

Question: What about the GI50 [19] of the same compound?
Answer: > 100 µM (inactive)

Question: What about the GI50 [20] of the same compound?
Answer: > 100 µM (inactive)

Question: With S=C1SCN(C2CCCCCCCCCCC2)CN1C1CCCCCCCCCCC1 as the compound, how does the GI50 [1] read?
Answer: > 100 µM (inactive)

Question: What about the GI50 [2] of the same compound?
Answer: 47.5 µM (inactive)

Question: And the GI50 [3]?
Answer: > 100 µM (inactive)

Question: And the GI50 [4]?
Answer: > 100 µM (inactive)

Question: And the GI50 [5]?
Answer: 67.6 µM (inactive)

Question: What about the GI50 [6] of the same compound?
Answer: > 100 µM (inactive)

Question: What about the GI50 [7] of the same compound?
Answer: 71.6 µM (inactive)

Question: And the GI50 [8]?
Answer: > 100 µM (inactive)

Question: And the GI50 [9]?
Answer: > 100 µM (inactive)

Question: And the GI50 [10]?
Answer: > 100 µM (inactive)

Question: What about the GI50 [11] of the same compound?
Answer: > 100 µM (inactive)

Question: What about the GI50 [12] of the same compound?
Answer: > 100 µM (inactive)

Question: What about the GI50 [13] of the same compound?
Answer: 97.9 µM (inactive)

Question: What about the GI50 [14] of the same compound?
Answer: > 100 µM (inactive)

Question: What about the GI50 [15] of the same compound?
Answer: 34.4 µM (inactive)

Question: And the GI50 [16]?
Answer: > 100 µM (inactive)

Question: And the GI50 [17]?
Answer: > 100 µM (inactive)

Question: What about the GI50 [18] of the same compound?
Answer: 42.2 µM (inactive)

Question: What about the GI50 [19] of the same compound?
Answer: 67.5 µM (inactive)

Question: What about the GI50 [20] of the same compound?
Answer: > 100 µM (inactive)

Question: Which results are given for COc1cc(N(CCC#N)CCC#N)ccc1C(=N/NC(=O)c1cc(Br)ccc1O)/N=N/c1ccccc1?
Answer: GI50 [1]: 13.8 µM (inactive); GI50 [2]: 17.1 µM (inactive); GI50 [3]: 22.6 µM (inactive); GI50 [4]: 34.2 µM (inactive); GI50 [5]: 24 µM (inactive); GI50 [6]: 33.1 µM (inactive); GI50 [7]: 16.9 µM (inactive); GI50 [8]: 30.1 µM (inactive); GI50 [9]: 16.3 µM (inactive); GI50 [10]: 28.2 µM (inactive); GI50 [11]: 20.8 µM (inactive); GI50 [12]: 32.1 µM (inactive); GI50 [13]: 20 µM (inactive); GI50 [14]: 26.7 µM (inactive); GI50 [15]: 8.45 µM (inactive); GI50 [16]: 31.6 µM (inactive); GI50 [17]: 31.6 µM (inactive); GI50 [18]: 36.6 µM (inactive); GI50 [19]: 23.4 µM (inactive); GI50 [20]: 24.9 µM (inactive)

Question: What does the source list for C/N=c1\sc2c(n1C)C(=O)c1ccccc1C2=O?
Answer: GI50 [1]: 6.78 µM (inactive); GI50 [2]: 4.14 µM (inactive); GI50 [3]: 2.62 µM (inactive); GI50 [4]: 2.01 µM (inactive); GI50 [5]: 1.76 µM (inactive); GI50 [6]: 14.6 µM (inactive); GI50 [7]: 3.75 µM (inactive); GI50 [8]: 0.222 µM (active); GI50 [9]: 5.3 µM (inactive); GI50 [10]: 3.37 µM (inactive); GI50 [11]: 1.76 µM (inactive); GI50 [12]: 2.55 µM (inactive); GI50 [13]: 2.11 µM (inactive); GI50 [14]: 2.08 µM (inactive); GI50 [15]: 4.15 µM (inactive); GI50 [16]: 1.54 µM (inactive); GI50 [17]: 2.09 µM (inactive); GI50 [18]: 0.192 µM (active); GI50 [19]: 9.31 µM (inactive); GI50 [20]: 3.04 µM (inactive)

Question: For O=C1N[C@@H]2c3c(Br)sc(Br)c3C(=O)[C@@H]2N1, which GI50 [1] is on record?
Answer: 2.26 µM (inactive)

Question: And the GI50 [2]?
Answer: 3.05 µM (inactive)

Question: What about the GI50 [3] of the same compound?
Answer: 6.44 µM (inactive)

Question: What about the GI50 [4] of the same compound?
Answer: 2.52 µM (inactive)

Question: What about the GI50 [5] of the same compound?
Answer: 6.65 µM (inactive)

Question: And the GI50 [6]?
Answer: 2.24 µM (inactive)

Question: And the GI50 [7]?
Answer: 1.74 µM (inactive)

Question: And the GI50 [8]?
Answer: 2.08 µM (inactive)

Question: And the GI50 [9]?
Answer: 3.78 µM (inactive)

Question: What about the GI50 [10] of the same compound?
Answer: 5.28 µM (inactive)

Question: And the GI50 [11]?
Answer: 17 µM (inactive)

Question: What about the GI50 [12] of the same compound?
Answer: 2.53 µM (inactive)

Question: What about the GI50 [13] of the same compound?
Answer: 4.73 µM (inactive)

Question: What about the GI50 [14] of the same compound?
Answer: 4.82 µM (inactive)

Question: And the GI50 [15]?
Answer: 0.678 µM (active)

Question: What about the GI50 [16] of the same compound?
Answer: 15.5 µM (inactive)

Question: And the GI50 [17]?
Answer: 1.77 µM (inactive)

Question: What about the GI50 [18] of the same compound?
Answer: 2.1 µM (inactive)

Question: And the GI50 [19]?
Answer: 5.04 µM (inactive)

Question: And the GI50 [20]?
Answer: 2.82 µM (inactive)
